From patent US20200031778A1, “NOVEL 5-SUBSTITUTED IMIDAZOLYLMETHYL DERIVATIVES” (Bayer CropScience Aktiengesellschaft, priority 2016, published 2020)

Assay: Log P by HPLC on reversed phase columns (EEC directive 79/831 Annex V.A8; methods [a], [b], [c])
Assay type: physicochemical
Settings: not given
In short: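 Log P derived from retention times, interpolated linearly between bracketing straight-chain alkan-2-ones (3–16 carbons) of known Log P. Eluents ran acetonitrile 10% to 95% against water with 0.1% formic acid ([a], acidic), 0.001 M ammonium acetate ([b], neutral) or 0.1% phosphoric acid ([c], acidic); UV read-out.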

| SMILES | LogP |
| --- | --- |
| CCc1ccc(C#CC(O)(Cn2cncc2C#N)C2(Cl)CC2)cc1 (centres unmarked) [I-320] | 3.11^[a] |
| N#Cc1cncn1CC(O)(c1ccc(-c2ccccc2)cc1)C1(Cl)CC1 (centres unmarked) [I-280] | 2.94^[a] |
| N#Cc1cncn1CC(O)c1ccc(F)cc1 (centres unmarked) [I-117] | 1.37^[a] |
| COC(Cn1cncc1C#N)c1ccc(Oc2ccc(Cl)cc2)cc1F (centres unmarked) [I-60] | 3.65^[a] |
| N#Cc1cncn1CC(O)(c1ccc(F)c(Br)c1)C1(F)CC1 (centres unmarked) [I-470] | 2.40^[a] |
| N#Cc1cncn1CC(O)(c1cc(F)cc(F)c1F)C1(F)CC1 (centres unmarked) [I-588] | 2.18^[a] |
| CC(O)(Cn1cncc1F)c1cnc(Oc2ccc(Br)cc2)cc1C(F)(F)F (single isomer, unassigned) [I-220] | 2.37^[a] |
| COC(Cn1cncc1Cl)c1ccc(Oc2ccc(Cl)cc2)cc1C(F)F (centres unmarked) [I-75] | 3.15^[a] |
| OC(Cn1cncc1Cl)c1ccc(Oc2ccc(Cl)cc2)cc1Cl (centres unmarked) [I-01] | 2.64^[a] |
| N#Cc1cncn1CC(O)c1ccc(Oc2ccc(Cl)nc2)nc1C(F)(F)F (centres unmarked) [I-151] | 2.37^[a] |
| CC(O)(Cn1cncc1Cl)c1ccc(Oc2ccc(C(F)(F)F)cc2)c(Br)c1 (centres unmarked) [I-160] | 2.78^[a] |
| OC(Cn1cncc1F)c1ccc(Oc2ccc(S(F)(F)(F)(F)F)cc2)nc1C(F)(F)F (centres unmarked) [I-147] | 2.59^[a] |
| CC(C)(C)C(O)(Cn1cncc1C#N)c1cc(F)c(F)c(Cl)c1 (centres unmarked) [I-544] | 3.07^[a] |
| OC(Cn1cncc1Cl)c1ccc(Oc2ccc(Br)cn2)cc1Cl (centres unmarked) [I-79] | 2.10^[a] |
| OC(Cn1cncc1Cl)c1ccc(Oc2ccc(Cl)cc2)cc1F (centres unmarked) [I-32] | 2.39^[a] |
| CC(C)CC#CC(O)(Cn1cncc1C#N)C1(F)CC1 (centres unmarked) [I-540] | 2.25^[a] |
| N#Cc1cncn1CC(O)c1ccc(Oc2ccc(Br)nc2)cc1Cl (centres unmarked) [I-73] | 2.47^[a] |
| CC(O)(Cn1cncc1Br)c1ccc(Oc2ccc(C(F)(F)F)cc2)cc1C(F)(F)F (centres unmarked) [I-199] | 2.98^[a] |
| CC(C)(C)CC(O)(Cn1cncc1C#N)c1cccc(F)c1Cl (centres unmarked) [I-368] | 3.15^[a] |
| CC(C)(C)C(O)(Cn1cncc1C#N)c1cc(F)c(Cl)c(Cl)c1 (centres unmarked) [I-545] | 3.31^[a] |
| OC(Cn1cncc1Cl)c1ccc(Oc2ccc(Cl)cc2)cc1C(F)F (centres unmarked) [I-71] | 2.45^[a] |
| CCCC(O)(Cn1cncc1C#N)c1ccc(F)cc1Br (centres unmarked) [I-408] | 2.75^[a] |
| CC(O)(Cn1cncc1F)c1ccc(Oc2ccc(C(F)F)cc2)nc1C(F)(F)F (centres unmarked) [I-295] | 2.15^[a] |

| SMILES | LogP |
| --- | --- |
| OC(Cn1cncc1Cl)c1ccc(Oc2ccc(Cl)cc2)nc1C(F)(F)F (centres unmarked) [I-34] | 2.51^[a] |
| CC(O)(Cn1cncc1Br)c1ccc(Oc2ccc(Br)cc2)cc1C(F)(F)F (centres unmarked) [I-192] | 3.03^[a] |
| N#Cc1cncn1CC(O)(c1cc(F)ccc1Cl)C1(Cl)CC1 (centres unmarked) [I-338] | 2.30^[a] |
| CC(C)(C)c1ccc(C#CC(O)(Cn2cncc2C#N)C2(Cl)CC2)cc1 (centres unmarked) [I-317] | 3.73^[a] |
| N#Cc1cncn1CC(=O)c1cnc(Oc2ccc(S(F)(F)(F)(F)F)cc2)cc1C(F)(F)F [IX-81] | 3.67^[a] |
| CC(O)(Cn1cncc1C#N)c1cnc(Oc2ccc(C(F)(F)F)cc2)cc1Cl (centres unmarked) [I-254] | 3.21^[a] |
| CC(O)(Cn1cncc1C#N)c1cnc(Oc2ccc(C(F)F)cc2)cc1C(F)(F)F (centres unmarked) [I-341] | 2.80^[a] |
| N#Cc1cncn1CC(O)(c1c(F)cccc1Cl)C1(Cl)CC1 (centres unmarked) [I-339] | 2.32^[a] |
| N#Cc1cncn1CC(O)c1ccc(Oc2ccc(OC(F)(F)F)cc2)nc1C(F)(F)F (centres unmarked) [I-137] | 3.12^[a] |
| C[Si](C)(C)C=CC(O)(Cn1cncc1C(F)(F)F)C1(Cl)CC1 (centres unmarked) [I-690] | 3.85^[a] |
| C#Cc1ccc(C(O)(Cn2cncc2C#N)C2(Cl)CC2)c(F)c1 (centres unmarked) [I-659] | 2.42^[a] |
| CCCCCC(O)(Cn1cncc1C#N)c1ccccc1C(F)(F)F (centres unmarked) [I-346] | 3.23^[a] |
| N#Cc1cncn1CC(O)(c1ccc(C(F)(F)F)cc1Cl)C1CC1 (centres unmarked) [I-418] | 2.98^[a] |
| N#Cc1cncn1CC(O)(c1cc(F)c(F)c(F)c1)C1(F)CC1 (centres unmarked) [I-500] | 2.34^[a] |
| N#Cc1cncn1CC(O)(c1cc(F)ccc1F)C1(F)CC1 (centres unmarked) [I-523] | 2.02^[a] |
| N#Cc1cncn1CC(O)c1cnc(Oc2ccc(S(F)(F)(F)(F)F)cc2)cc1C(F)(F)F (centres unmarked) [I-96] | 3.44^[a] |
| CC(C)C(O)(Cn1cncc1C#N)c1ccc(Cl)cc1F (centres unmarked) [I-417] | 2.68^[a] |
| CC(=O)c1cncn1CC(C)(O)c1ccc(Oc2ccc(Br)cc2)cc1Cl (centres unmarked) [I-197] | 3.07^[a] |
| CCCC(C)C(O)(Cn1cncc1C#N)c1ccc(Cl)cc1Cl (single isomer, unassigned) [I-316] | 3.72^[a] |
| OC(Cn1cncc1Br)c1ccc(Oc2ccccc2)cc1Cl (centres unmarked) [I-27] | 2.21^[a] |
| CC(O)(Cn1cncc1Cl)c1ccc(Oc2ccc(C(F)(F)F)cc2)cc1C(F)(F)F (centres unmarked) [I-196] | 3.01^[a] |
| N#Cc1cncn1CC(O)c1cnc(Oc2ccc(C(F)(F)F)nc2)cc1C(F)(F)F (centres unmarked) [I-118] | 2.46^[a] |
| CCC(O)(Cn1cncc1C#N)c1ccccc1C(F)(F)F (centres unmarked) [I-329] | 2.27^[a] |

| SMILES | LogP |
| --- | --- |
| CC(O)(Cn1cncc1Cl)c1ccc(Oc2ccc(Br)cn2)cc1Cl (centres unmarked) [I-204] | 2.32^[a] |
| N#Cc1cncn1CC(O)(c1cc(F)cc(F)c1)C1(F)CC1 (centres unmarked) [I-473] | 2.14^[a] |
| CC(=O)c1cncn1CC(C)(O)c1cnc(Oc2ccc(C(F)(F)F)cc2)cc1Cl (centres unmarked) [I-246] | 2.76^[a] |
| CC(C)(C)C#Cc1ccc(C(O)(Cn2cncc2C#N)C2(Cl)CC2)c(F)c1 (centres unmarked) [I-653] | 3.79^[a] |
| N#Cc1cncn1CC(O)(CC1CC1)c1cc(F)c(F)cc1F (centres unmarked) [I-514] | 2.36^[a] |
| CC(C)(C)C(O)(Cn1cncc1C#N)c1ccc(Cl)cc1F (centres unmarked) [I-342] | 3.00^[a] |
| N#Cc1cncn1CC(O)(c1ccc(C2CC2)cc1Cl)C1(Cl)CC1 (centres unmarked) [I-332] | 2.88^[a] |
| N#Cc1cncn1CC(O)(CC1CC1)c1cc(F)cc(Br)c1 (centres unmarked) [I-532] | 2.65^[a] |
| CC(C)(C)CC(O)(Cn1cncc1C#N)c1ccccc1F (centres unmarked) [I-274] | 2.92^[a] |
| C[Si](C)(C)CC(O)(Cn1cncc1C#N)c1ccccc1Br (centres unmarked) [I-307] | 3.50^[a] |
| OC(Cn1cncc1C(F)(F)F)c1ccc(Oc2ccc(Cl)cc2)cc1Cl (centres unmarked) [I-39] | 3.80^[a] |
| N#Cc1cncn1CC(O)(c1c(Cl)ccc(Cl)c1F)C1(F)CC1 (centres unmarked) [I-564] | 2.39^[a] |
| CC(O)(Cn1cncc1C#N)c1ccc(Oc2ccc(Cl)cc2F)nc1C(F)(F)F (centres unmarked) [I-279] | 3.14^[a] |
| N#Cc1cncn1CC(O)c1ccccc1C(F)(F)F (centres unmarked) [I-150] | 1.81^[a] |
| CCCC(C)C(O)(Cn1cncc1C#N)c1ccc(Cl)cc1 (single isomer, unassigned) [I-328] | 3.15^[a] |
| CC(C)(C)C(O)(Cn1cncc1C#N)c1cc(F)c(Cl)c(F)c1 (centres unmarked) [I-491] | 3.01^[a] |
| CC(O)(Cn1cncc1C#N)c1ccc(Oc2ccc(I)cc2)cc1Cl (centres unmarked) [I-202] | 3.73^[a] |
| N#Cc1cncn1CC(O)(c1ccc(Oc2ccc(Cl)cc2)cc1Cl)C1(F)CC1 (centres unmarked) [I-390] | 3.64^[a] |
| N#Cc1cncn1CC(O)c1ccc(Oc2ccc(Br)nc2)nc1C(F)(F)F (centres unmarked) [I-154] | 2.46^[a] |
| CC(O)(Cn1cncc1Cl)c1ccc(Oc2ccc(Cl)cc2)cc1Cl (centres unmarked) [I-167] | 2.86^[a] |
| N#Cc1cncn1CC(O)(CC1CC1)c1ccc(Cl)c(Cl)c1 (centres unmarked) [I-488] | 2.78^[a] |
| CCOC(Cn1cncc1C#N)c1ccc(Oc2ccc(Br)cc2)cc1C(F)(F)F (centres unmarked) [I-91] | 4.69^[a] |
| N#Cc1cncn1CC(O)(c1cc(F)cc(Br)c1)C1(F)CC1 (centres unmarked) [I-537] | 2.51^[a] |

| SMILES | LogP |
| --- | --- |
| C/C=C(\C)C(O)(Cn1cncc1C#N)c1ccc(Cl)cc1F (centres unmarked) [I-397] | 2.73^[a] |
| CN(C)C(=O)OC(Cn1cncc1C#N)c1ccc(Oc2ccc(Br)cc2)cc1C(F)(F)F (centres unmarked) [I-92] | 3.85^[a] |
| N#Cc1cncn1CC(O)(c1ccc(Cl)cc1)C1CC1 (centres unmarked) [I-305] | 2.27^[a] |
| OC(Cn1cncc1Cl)c1ccc(Oc2ccc(OC(F)(F)F)cc2)cc1Cl (centres unmarked) [I-04] | 2.82^[a] |
| N#Cc1cncn1CC(O)(c1cccc(Cl)c1F)C1(Cl)CC1 (centres unmarked) [I-553] | 2.40^[a] |
| CCC(C)C(O)(Cn1cncc1C#N)c1ccc(Cl)cc1 (single isomer, unassigned) [I-326] | 2.78^[a] |
| CC(O)(Cn1cncc1Br)c1ccc(Oc2ccc(I)cc2)cc1Br (centres unmarked) [I-186] | 3.23^[a] |
| N#Cc1cncn1CC(O)(CCCC1CCCCC1)CC1CC1 (centres unmarked) [I-666] | 3.91^[a] |
| N#Cc1cncn1CC(O)(c1cc(Cl)cc(Cl)c1Cl)C1(F)CC1 (centres unmarked) [I-612] | 2.66^[a] |
| N#Cc1cncn1CC(O)(c1ccc(Cl)cc1)C1(Cl)CC1 (centres unmarked) [I-232] | 2.49^[a] |
| N#Cc1cncn1CC(O)(c1cc(F)c(F)cc1Cl)C1(F)CC1 (centres unmarked) [I-579] | 2.32^[a] |
| N#Cc1cncn1CC(O)(CC1CC1)c1cc(Br)cc(Br)c1 (centres unmarked) [I-498] | 2.99^[a] |
| N#Cc1cncn1CC(O)(c1ccc(F)nc1F)C1(Cl)CC1 (centres unmarked) [I-550] | 1.98^[a] |
| N#Cc1cncn1CC(O)(c1ccc(C2CC2C2CC2)cc1Cl)C1(F)CC1 (centres unmarked) [I-388] | 3.60^[a] |
| CC(C)(C)CC(O)(Cn1cncc1C#N)c1ccc(F)cc1Cl (centres unmarked) [I-259] | 3.39^[a] |
| N#Cc1cncn1CC(O)(c1c(F)cc(Cl)cc1F)C1(F)CC1 (centres unmarked) [I-519] | 2.36^[a] |
| COc1c(Cl)ccc(C(O)(Cn2cncc2C#N)C2(F)CC2)c1F (centres unmarked) [I-527] | 2.36^[a] |
| OC(Cn1cncc1F)c1cnc(Oc2ccc(C(F)(F)F)cc2)cc1Cl (centres unmarked) [I-126] | 2.27^[a] |
| CC(C)(C)CC(O)(Cn1cncc1C#N)c1ccc(C(F)(F)F)cc1F (centres unmarked) [I-273] | 3.55^[a] |
| N#Cc1cncn1CC(O)(c1ccc(Cl)cc1F)C1CCCCC1 (centres unmarked) [I-482] | 3.42^[a] |
| N#Cc1cncn1CC(O)(c1ccc(Cl)c(F)c1F)C1(F)CC1 (centres unmarked) [I-637] | 2.41^[a] |

Same assay, conditions: reversed phase HPLC column; method [a]: LC-UV, acidic range, 0.1% formic acid in water and acetonitrile as eluent (linear gradient from 10% to 95% acetonitrile)

| SMILES | chromatographic logP |
| --- | --- |
| N#Cc1cncn1CC(=O)c1cnc(Oc2ccc(C(F)(F)F)nc2)cc1C(F)(F)F [IX-105] | 2.82 |
| O=C(Cn1cncc1Cl)c1ccc(O)cc1Cl [IX-145] | 0.97 |
